Measurements as given in patent publication US8129356B2, “Bmx mediated signal transduction in irradiated vascular endothelium” (Vanderbilt University, priority 2007, dated 2012).
Entries after “also recorded” stand apart in the source; their conditions may differ.

Tests used:
LLC tumor vasculature = experiment: Tumor vascular window model; type: in vivo, C57BL/6 mice
Description: Tumor vascular window model. The tumor vascular window model technique is described in Edwards et al., 2002. Briefly, three mice for each group had tumors grown within a vascular window such that tumor vasculature could be visualized within window frames containing a coordinate system for serial photography. Animals were treated with LFM-A13 by i.p. injection 60 minutes prior to 2 Gy irradiation using an 80 kVp superficial X-ray machine (Pantak X-ray Generator; East Haven, Conn., United States of America). Serial color photographs were taken to document blood vessel appearance on days 0-7. Photographs were scanned and processed using ADOBE® PHOTOSHOP® software (Adobe Systems Inc., San Jose, Calif., United States of America) to mark the center of vessels, verified by an observer blinded to treatment groups. Vascular length density (VLD) was quantified for each microscopic field using IMAGE-PRO® Plus v. 5.1 software (Media Cybernetics, Inc. Silver Spring, Md., United States of America). The mean and standard error of VLD in each treatment group were calculated and plotted. All animals used were cared for according to Vanderbilt University's Institutional Animal Care and Use Committees guidelines.

[1] = tested on: LLC hind limb tumor blood vessels; experiment: Tumor immunohistochemistry (anti-CD34) in hind limb xenograft; type: in vivo, C57BL/6 mice; conditions: 50 mg/kg i.p. daily, 45 minutes before 3 Gy, five treatments
Description: Tumor immunohistochemistry. LLC's were subcutaneously injected into the hind limb of C57BL/6 mice to form xenografts. When tumors grew to 200 mm^3, (approximately 7 days) the mice were treated with five consecutive daily treatments of i.p. LFM-A13 followed 45 minutes later by 3 Gy irradiation using an 80 kVp superficial x-ray generator. Twelve hours following the last radiation treatment, mice were sacrificed and tumors were harvested, fixed in paraffin, and sectioned by the Vanderbilt University Immunohistochemistry Core Facility as described previously (see Cuneo et al., 2007). Immunostaining was with goat anti-CD34 (Santa Cruz Biotechnology) and microvascular photos were analyzed using IMAGE-PRO® software with pixel number quantified.

Bmx [2] = target: T1, Bmx (Homo sapiens, UniProt P51813); conditions: HUVEC, dose of 25 μM; cited from earlier work
T1 construct: host or cells: HUVEC
T1 sequence (P51813 1-675): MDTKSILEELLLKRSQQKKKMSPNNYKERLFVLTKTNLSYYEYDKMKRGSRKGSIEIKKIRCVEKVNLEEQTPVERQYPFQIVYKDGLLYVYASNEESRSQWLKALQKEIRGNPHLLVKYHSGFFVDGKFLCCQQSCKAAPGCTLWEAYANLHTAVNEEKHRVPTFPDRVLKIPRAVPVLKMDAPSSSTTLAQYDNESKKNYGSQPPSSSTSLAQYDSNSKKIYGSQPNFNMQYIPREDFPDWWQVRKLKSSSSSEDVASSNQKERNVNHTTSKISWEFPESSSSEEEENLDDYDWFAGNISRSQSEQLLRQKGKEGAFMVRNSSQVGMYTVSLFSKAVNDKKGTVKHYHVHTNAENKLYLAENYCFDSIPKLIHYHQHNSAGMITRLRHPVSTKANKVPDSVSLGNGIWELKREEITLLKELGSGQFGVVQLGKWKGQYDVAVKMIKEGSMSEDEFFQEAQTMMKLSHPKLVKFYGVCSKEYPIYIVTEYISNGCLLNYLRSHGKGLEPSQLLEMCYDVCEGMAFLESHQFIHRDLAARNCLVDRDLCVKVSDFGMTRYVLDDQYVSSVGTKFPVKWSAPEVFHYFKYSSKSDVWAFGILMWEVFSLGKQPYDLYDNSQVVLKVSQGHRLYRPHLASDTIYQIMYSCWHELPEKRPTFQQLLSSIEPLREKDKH

Bmx [3] = target: T1, Bmx; type: cell-based; conditions: 30 μM pre-incubation, 3 Gy
Description: Immunoprecipitation and in vitro kinase assay. HUVECs of passage 3-6 were grown to 70-80% confluency and then serum starved for 5 hours. The cells were then treated with sham or 3 Gy irradiation. After treatment, the cells were incubated at 37° C. with 5% CO2 for the indicated times. For inhibition studies, inhibitor was added at a 1:1000 dilution 60 minutes prior to irradiation. Following incubation, the tissue culture dishes were placed on ice and washed twice with ice cold 1× Phosphate-buffered Saline (PBS) followed by lysis using 400 μM-PER containing protease and phosphatase inhibitors (Sigma-Aldrich Co.) for 5 minutes. The cells were scraped and transferred to Eppendorf tubes, vortexed for 20 seconds, and incubated on ice for 30 minutes. After clearing the lysate by centrifugation at 15,000 g for 15 minutes at 4° C., the supernatant was quantified for protein concentration using the bicinchoninic acid (BCA) method prior to immunoprecipitation. Immunoprecipitation was performed using the CATCH AND RELEASE® v 2.0 system (Upstate Group, LLC, Charlottesville, Va., United States of America) according to manufacturer's protocol with some modification.
Briefly, spin columns containing binding resin were prepared by washing twice with 1× wash buffer (2000 g/30 seconds). […] This was added to the capped spin column which was rotated end-over-end overnight at 4° C. […]

HUVEC [4] = experiment: Endothelial cell tubule formation assay on MATRIGEL; type: cell-based, human; conditions: 30 μM plus 3 Gy, vs either treatment alone
Description: Endothelial cell tubule formation assay. HUVEC of passage 3-6 were grown to 70-80% confluency. Cells were then washed with 1×PBS and suspended by trypsinization. Cells were counted and adjusted to 2.5-5×10^4 cells/ml in media. 75 μl MATRIGEL™ (BD Biosciences) were plated into each well of a 96 well plate and allowed to polymerize at 37° C. Cell suspensions (200 μl; […]) were added to each well. After thirty minutes, DMSO control or LFM-A13 was added. Thirty minutes later, dishes were treated with sham or 3 Gy and were then incubated until tubules had formed in control plates (4-6 hours). Digital photographs were taken of individual wells and tubules were counted by an observer blinded to the treatment conditions. The mean and standard error were calculated (n=3).

[5] = tested on: Lewis Lung Carcinoma (LLC) cell line; experiment: Clonogenic survival assay in LLC; type: cell-based; conditions: prior to 0, 2, 4, or 6 Gy
Description: (§1) Clonogenic survival. LLC's or passage 3-6 HUVECs were grown to 70-80% confluency. Cells were washed with 1×PBS, trypsin suspended, and were counted and adjusted to specific densities for each condition. The cells were plated on tissue culture plates and allowed to attach for 4 hours. LFM-A13 or DMSO was added at a 1:1000 dilution followed 60 min later by 0, 2, 4 or 6 Gy. Media was changed after irradiation. 10-14 days after irradiation, the plates were fixed with 70% ethanol and stained with 1% methylene blue. Colonies were then counted using a dissection microscopy with positive colonies containing at least 50 cells. Surviving fraction (SF) was calculated by the equation (number of colonies formed/number of cells plated)/(number of colonies for sham irradiated group/number of cells plated). Dose enhancing ratios were calculated by dividing the dose (Gy) for radiation alone by the dose for radiation plus treatment (normalized for plating efficiency of treatment) for which a SF of 0.2 is achieved.

LLC hind limb tumors = experiment: Tumor growth delay; type: in vivo, C57BL/6 mice; conditions: 5 consecutive days
Description: Tumor growth delay. LLC's were subcutaneously injected into the hind limb of C57/BL6 mice to form xenografts. When tumors grew to 200 mm^3, (approximately 7 days) the mice were treated with five consecutive daily treatments of i.p. LFM-A13 followed 45 minutes later by 3 Gy irradiation using an 80 kVp superficial x-ray generator. Serial measurements of tumor dimensions were taken by caliper and tumor volume was calculated using the modified ellipsoid formula (length×width×depth)/2. The mean and standard error were plotted using Microsoft Excel software.

HUVEC [6] = experiment: Endothelial closure assay (migration across a gap); type: cell-based, human
Description: Endothelial closure assay. HUVEC of passage 3-6 were grown on glass slides and were subjected to gap formation as described previously (Cuneo et al., 2007). Cells were treated with LFM-A13 or DMSO control prior to 0 or 3 Gy and incubated for the indicated times. Photographs of cell defect and surrounding cells were taken and relative cell density within the defect was calculated as follows: (number of cells/original cell defect area)/(number of cells/surrounding area).

HUVEC [7] = experiment: Clonogenic survival assay in HUVEC; type: cell-based, human; conditions: 30 μM
Description: as §1, with “LFM-A13 or DMSO was added at a 1:1000 dilution followed 60 min later by 0, 2, 4 or 6 Gy.” left out

HUVEC [8] = experiment: Apoptosis assay, DAPI staining of nuclei; type: cell-based, human; conditions: 30 μM plus 3 or 6 Gy, 24 hours
Description: HUVEC were also assayed for apoptosis using a 4′,6-Diamidino-2-phenylindole (DAPI) staining of the nuclei to identify cells undergoing morphological changes. […] Cells were returned to the incubator for an additional 24 hr prior to DAPI staining. Multiple high powered fields (at least 7) were examined by an observer who was blinded to the experimental conditions for each of the cultures. […] The mean and standard error were calculated for each treatment group.

[9] = murine studies, previously published; cited from earlier work
HUVEC [10] = experiment: Apoptosis assay, Annexin V/propidium iodide flow cytometry; type: cell-based, human; conditions: 24 hours
Description: Apoptosis assays. HUVEC were grown to 70-80% confluency prior to treatment with LFM-A13 or DMSO control. Cells were then irradiated with 0 or 3 Gy and harvested 24 hours after irradiation. Annexin V-FITC Apoptosis Detection kit (BD PharMingen, San Diego, Calif., United States of America) was used to stain cells (propidium iodide (50 ng) and annexin V-FITC (5 ng) were added to 10^5 cells) for flow cytometry according to manufacturer's protocol. For each treatment, the percent of cells undergoing apoptosis (±SE) was calculated. Camptothecin (5 μmol/L) treatment for 6 hours served as positive control

HUVEC [11] = experiment: In vitro studies disclosed herein, comparison of Tec family inhibitors; type: cell-based, human

Row | Structure (SMILES) | tumor vascular window blood vessels, drug alone (LLC tumor vasculature; 50 mg/kg i.p. alone) | tumor blood vessels (mean vascular length density), combination with 2 Gy (LLC tumor vasculature; single 50 mg/kg i.p. prior to 2 Gy) | blood vessel formation (CD34 staining), combination with 3 Gy [1] | VEGF induced signaling through Bmx inhibition (Bmx [2]) | radiation-induced Bmx activation (autophosphorylation) (Bmx [3]) | number of tubules formed, combination with 3 Gy (HUVEC [4]) | clonogenic survival compared to DMSO control [5] | tumor growth delay, combination with 3 Gy (LLC hind limb tumors; 50 mg/kg i.p. 45 minutes prior to 3 Gy) | tumor growth delay, drug alone (LLC hind limb tumors; 50 mg/kg i.p., sham irradiation) | endothelial cell closure (relative cell density in gap), drug alone (HUVEC [6]; 30 μM alone, 12 hours and 24 hours, vs vehicle control) | endothelial cell closure, combination with 3 Gy (HUVEC [6]; 30 μM for 45 minutes prior to 3 Gy, 12 and 24 hours) | radiosensitization (surviving fraction, survival curve shift) (HUVEC [7]; 45 minutes prior to 0, 2, 4, or 6 Gy, colonies over 10 days) | dose enhancing ratio (DER) (HUVEC [7]; dose ratio at SF of 0.2) | percent of apoptotic cells, combination with irradiation (HUVEC [8]) | tolerability [9] | apoptosis, combination with 3 Gy (HUVEC [10]; 30 μM plus 3 Gy) | early and late apoptosis, drug alone (HUVEC [10]; 30 μM, sham irradiation) | effectiveness relative to LFM-A13 (HUVEC [11])
1 | C/C(O)=C(\C#N)C(=O)Nc1cc(Br)ccc1Br [LFM-A13, (2Z)-2-cyano-N-(2,5-dibromophenyl)-3-hydroxy-2-butenamide] | minimally inhibited | dramatic reduction in tumor blood vessels | most effective at attenuating blood vessel formation | block VEGF induced signaling | attenuated the activation of Bmx | significant reduction (p<0.005) in tubules formed | no difference in clonogenic survival | statistically significant enhancement of growth delay; also recorded: more than additive | small growth delay | minimal effect on attenuating endothelial cell closure | greater than additive effect | radiosensitized HUVEC | 1.47 | enhancement of apoptosis | well-tolerated | statistically significant (p<0.001 vs. LFM-A13 or 3 Gy alone) increase in apoptosis | not capable of shifting cells into either early (Q4-1) or late (Q2-1) apoptosis | 
2 | CC1=C(O)C(=O)[C@@H]2O[C@@H]2C1=O [terreic acid] |  |  |  |  |  |  |  |  |  |  |  |  |  |  |  |  |  | at least as effective as LFM-A13
